Measurements published in patent US10071957B2, “N-substituted benzamides and methods of use thereof” (GENENTECH, INC., priority 2012, dated 2018).

Target: hNaV1.7 (Homo sapiens (Human), UniProt Q15858)
Test: Competitive binding of tritiated compound to membranes from cells expressing hNav1.7 and the β1 subunit
Settings: 100 pM [3H]compound, 18 h, room temperature; read-out: NaV1.7 395 Membrane Binding IC50
Procedure: Tritiated compound binding to membranes isolated from cells that heterologously express hNav1.7 and the β1 subunit
Preparation of membranes containing recombinantly expressed sodium channels: Frozen recombinant cell pellets were thawed on ice and diluted to 4 times the cell pellet weight with ice cold 50 mM Tris HCl, pH 7.4 buffer. The cell suspensions were homogenized on ice using a motorized glass dounce homogeniser. Homogenates were further diluted 8.4 times with ice cold 50 mM Tris HCl, pH 7.4 buffer and then centrifuged at 200×g at 4° C. for 15 min. The supernatants were collected and centrifuged at 10000×g at 4° C. for 50 min. The pellets were then re-suspended in 100 mM NaCl, 20 mM Tris HCl, pH 7.4 buffer containing 1% v/v protease inhibitors (Calbiochem) and re-homogenized on ice. The homogenized membranes were then processed through a syringe equipped with a 26 gauge needle. Protein concentrations were determined by Bradford Assay and the membranes were stored at −80° C.
Radioligand Binding Studies: Saturation experiments. A representative compound of formula (I) was tritiated. Three tritiums were incorporated in place of methyl hydrogens to generate [^3H]compound. Binding of this radioligand was performed in 5 mL borosilicate glass test tubes at room temperature. Binding was initiated by adding membranes to increasing concentrations of [^3H]compound in 100 mM NaCl, 20 mM Tris HCl, pH 7.4 buffer containing 0.01% w/v bovine serum albumin (BSA) for 18 h. Non-specific binding was determined in the presence of 1 μM unlabelled compound. After 18 h, the reactants were filtered through GF/C glass fiber filters presoaked in 0.5% w/v polyethylene imine. Filters were washed with 15 mL ice cold 100 mM NaCl, 20 mM Tris HCl, pH 7.4 buffer containing 0.25% BSA to separate bound from free ligand. [^3H]compound bound to filters was quantified by liquid scintillation counting.
Competitive binding experiments. Binding reactions were performed in 96-well polypropylene plates at room temperature for 18 h. In 360 μL, membranes were incubated with 100 pM [^3H]compound and increasing concentrations of Test Compound. Non-specific binding was defined in the presence of 1 μM unlabelled compound. Reactions were transferred and filtered through 96-well glass fiber/C filter plates presoaked with 0.5% polyethylene imine. The filtered reactions were washed 5 times with 200 μL ice cold buffer containing 0.25% BSA. Bound radioactivity was determined by liquid scintillation counting.
Data Analysis: For saturation experiments, non-specific binding was subtracted from total binding to provide specific binding and these values were recalculated in terms of pmol ligand bound per mg protein. Saturation curves were constructed and dissociation constants were calculated using the single site ligand binding model: Beq=(Bmax*X)/(X+Kd), where Beq is the amount of ligand bound at equilibrium, Bmax is the maximum receptor density, Kd is the dissociation constant for the ligand, and X is the free ligand concentration. For competition studies percent inhibition was determined and IC50 values were calculated using a 4 parameter logistic model (% inhibition=(A+((B−A)/(1+((x/C)^D)))) using XLfit, where A and B are the maximal and minimum inhibition respectively, C is the IC50 concentration and D is the (Hill) slope.

Sequence of hNaV1.7 (Q15858 whole entry, looked up): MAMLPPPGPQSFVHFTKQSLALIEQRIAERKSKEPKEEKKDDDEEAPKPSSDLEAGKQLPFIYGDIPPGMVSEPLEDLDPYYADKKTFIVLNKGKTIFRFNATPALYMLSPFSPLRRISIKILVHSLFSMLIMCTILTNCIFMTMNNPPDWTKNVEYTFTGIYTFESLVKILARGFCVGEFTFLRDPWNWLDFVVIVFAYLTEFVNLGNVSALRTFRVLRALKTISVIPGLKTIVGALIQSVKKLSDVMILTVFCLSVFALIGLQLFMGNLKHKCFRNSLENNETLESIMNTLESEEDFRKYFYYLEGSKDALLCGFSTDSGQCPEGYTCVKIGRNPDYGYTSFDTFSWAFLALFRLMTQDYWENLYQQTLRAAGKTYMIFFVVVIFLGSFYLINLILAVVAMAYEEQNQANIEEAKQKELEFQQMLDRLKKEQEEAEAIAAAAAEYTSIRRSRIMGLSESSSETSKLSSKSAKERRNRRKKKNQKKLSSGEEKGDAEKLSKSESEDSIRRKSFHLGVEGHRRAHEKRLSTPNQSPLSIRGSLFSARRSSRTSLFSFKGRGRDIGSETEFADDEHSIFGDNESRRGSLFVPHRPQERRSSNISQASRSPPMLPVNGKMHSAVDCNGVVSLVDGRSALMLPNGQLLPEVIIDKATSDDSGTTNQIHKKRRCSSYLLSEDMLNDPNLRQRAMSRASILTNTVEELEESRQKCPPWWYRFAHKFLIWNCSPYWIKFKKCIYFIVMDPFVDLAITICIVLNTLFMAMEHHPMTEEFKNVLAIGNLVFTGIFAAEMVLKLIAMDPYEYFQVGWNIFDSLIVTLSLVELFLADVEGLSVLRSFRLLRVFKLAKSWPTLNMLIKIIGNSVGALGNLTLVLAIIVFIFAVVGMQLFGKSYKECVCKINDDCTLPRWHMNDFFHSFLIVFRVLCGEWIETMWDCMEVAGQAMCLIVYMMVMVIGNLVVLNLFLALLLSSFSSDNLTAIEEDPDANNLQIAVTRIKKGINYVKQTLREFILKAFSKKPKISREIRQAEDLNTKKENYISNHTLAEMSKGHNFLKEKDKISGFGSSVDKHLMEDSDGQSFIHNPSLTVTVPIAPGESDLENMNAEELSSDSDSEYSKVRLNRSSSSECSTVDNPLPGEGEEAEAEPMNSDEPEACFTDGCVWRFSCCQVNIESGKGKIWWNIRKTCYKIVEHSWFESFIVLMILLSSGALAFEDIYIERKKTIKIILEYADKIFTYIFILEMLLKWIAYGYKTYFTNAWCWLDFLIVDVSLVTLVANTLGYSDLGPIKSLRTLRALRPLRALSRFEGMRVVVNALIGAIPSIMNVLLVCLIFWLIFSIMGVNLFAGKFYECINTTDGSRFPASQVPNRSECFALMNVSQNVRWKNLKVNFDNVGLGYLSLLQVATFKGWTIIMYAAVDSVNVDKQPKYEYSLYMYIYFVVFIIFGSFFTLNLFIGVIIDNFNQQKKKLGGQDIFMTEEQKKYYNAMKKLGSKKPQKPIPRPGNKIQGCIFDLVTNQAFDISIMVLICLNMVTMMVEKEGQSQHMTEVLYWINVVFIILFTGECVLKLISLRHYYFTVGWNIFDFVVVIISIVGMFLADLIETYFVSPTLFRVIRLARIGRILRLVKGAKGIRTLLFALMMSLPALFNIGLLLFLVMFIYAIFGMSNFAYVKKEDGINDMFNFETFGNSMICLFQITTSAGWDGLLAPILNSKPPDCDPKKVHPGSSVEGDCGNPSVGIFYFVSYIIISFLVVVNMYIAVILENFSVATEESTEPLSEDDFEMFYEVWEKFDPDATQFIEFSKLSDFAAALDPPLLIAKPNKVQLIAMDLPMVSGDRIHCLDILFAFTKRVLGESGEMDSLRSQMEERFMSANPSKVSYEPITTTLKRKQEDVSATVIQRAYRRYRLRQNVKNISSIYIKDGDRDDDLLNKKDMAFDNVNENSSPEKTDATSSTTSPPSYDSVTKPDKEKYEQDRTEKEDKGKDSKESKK
Sequence of hNaV1.7 (Q07699 whole entry partner, looked up): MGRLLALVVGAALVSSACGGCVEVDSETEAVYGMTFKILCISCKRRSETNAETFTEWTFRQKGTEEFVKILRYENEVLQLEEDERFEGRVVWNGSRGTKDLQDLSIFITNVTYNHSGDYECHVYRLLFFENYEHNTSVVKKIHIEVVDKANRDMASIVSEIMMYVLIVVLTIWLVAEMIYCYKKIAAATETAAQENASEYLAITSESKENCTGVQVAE

SMILES	IC50
CC(C)COc1ncc(Oc2cc(F)c(C(=O)NS(=O)(=O)N(C)Cc3ccccc3)cc2Cl)cc1Cl [Preparation 19, N-(N-benzyl-N-methylsulfamoyl)-5-chloro-4-((5-chloro-6-isobutoxypyridin-3-yl)oxy)-2-fluoro-benzamide]	4.44 µM
O=C(NS(=O)(=O)N1CCC1)c1cc(C2CC2)c(COc2cc(Cl)cc(Cl)c2)cc1F [Preparation 96]	0.0003 µM
CC(C)COc1ncc(Oc2cc(F)c(C(=O)NS(=O)(=O)N(C)C)cc2Cl)cc1C(F)(F)F [Preparation 40, 5-chloro-N-(N,N-dimethylsulfamoyl)-2-fluoro-4-((6-iso-butoxy-5-(trifluoro-methyl)pyridin-3-yl)oxy)benzamide]	0.071 µM
Cc1cc(Oc2cc(F)c(C(=O)NS(=O)(=O)N(C)C)cc2Cl)cc(C)c1C#N [Preparation 74, 5-chloro-4-(4-cyano-3,5-dimethylphenoxy)-N-(N,N-dimethyl-sulfamoyl)-2-fluoro-benzamide]	11 µM
CN(C)S(=O)(=O)NC(=O)c1cc(Cl)c(Oc2ccc3ncccc3c2)cc1F [Preparation 72, 5-chloro-N-(N,N-dimethylsulfamoyl)-2-fluoro-4-(quinolin-6-yloxy)benzamide]	9.6 µM
CNS(=O)(=O)NC(=O)c1cc(C2CC2)c(Oc2cnc(OC(C)C)c(Cl)c2)cc1F [Preparation 90]	0.006 µM
CC(C)COc1ncc(Oc2cc(F)c(C(=O)NS(=O)(=O)NC(=O)OC(C)(C)C)cc2Cl)cc1Cl [Preparation 29, tert-butyl N-(5-chloro-4-((5-chloro-6-isobutoxy-pyridin-3-yl)oxy)-2-fluorobenzoyl) sulfamoylcarbamate]	0.905 µM
O=C(NS(=O)(=O)c1cccnc1)c1cc(Cl)c(Oc2cnc(OCC(F)(F)C(F)F)c(Cl)c2)cc1F [Preparation 69, 5-chloro-4-((5-chloro-6-(2,2,3,3-tetrafluoro-propoxy)pyridin-3-yl)oxy)-2-fluoro-N-(pyridin-3-ylsulfonyl) benzamide]	0.95 µM
CN(C)S(=O)(=O)NC(=O)c1cc(Cl)c(Oc2cccc3cnccc23)cc1F [Preparation 60, 5-chloro-N-(N,N-dimethylsulfamoyl)-2-fluoro-4-(isoquinolin-5-yloxy)benzamide]	20 µM
CN(C)S(=O)(=O)NC(=O)c1cc(Cl)c(Oc2cccc3[nH]ccc23)cc1F [Preparation 55, 4-((1H-indol-4-yl)oxy)-5-chloro-N-(N,N-dimethyl-sulfamoyl)-2-fluoro-benzamide]	20 µM
CN(C)S(=O)(=O)NC(=O)c1cc(Cl)c(Oc2cccc3ncccc23)cc1F [Preparation 71, 5-chloro-N-(N,N-dimethylsulfamoyl)-2-fluoro-4-(quinolin-5-yloxy)benzamide]	20 µM
